The values that follow come from patent US12570657B2, “Mesylate salts of heterocyclic cytokinins, compositions containing these derivatives and use thereof” (UNIVERZITA PALACKEHO V OLOMOUCI, priority 2020, dated 2026).

SMILES strings stand for the structures.

In general, IC50 refers to the concentration that inhibits the measured activity by half.

Test [1] concerns CEM (T-lymphoblastic leukemia). The experiment in a line: In vitro cytotoxicity, Calcein AM assay, CEM. It is filed as cell-based. To be noted: 72 h, 3-day Calcein-AM assay. From the text:
(§1) Because toxic compounds adversely affect cell metabolic processes, many standard cytotoxicity assays are based on measuring the rate of metabolism of various artificial substrates. The resulting product is then quantified, for example, by spectrometry. Assays can be easily modified for use in 96-well plates, A microtiter assay based on the quantification of Calcein AM metabolism was used to evaluate the cytotoxicity of cytokinins, for example meta-topolin, ortho-topolin, kinetin, BAP or its mesylate salts, but also a number of other cytokinin mesylate derivatives according to the invention. The test is widely used in drug screening programs and in chemosensitivity testing. In living cells, Calcein AM is enzymatically hydrolyzed and the accumulation of the resulting calcein is manifested by green fluorescence. […] These cells were maintained in standard DMEM or RPMI medium (Sigma, MO, USA) supplemented with heat-inactivated fetal bovine serum (10%) with 2 mM L-glutamine and penicillin-streptomycin (1%) under standard cell culture conditions (37° C., 5% CO2 in a humid environment) and subcultured two or three times a week using a standard trypsinization procedure. Approximately 10,000 cells in 80 μl of medium were seeded in a 96-well microtiter plate. After 12 hours of incubation, the compounds to be tested were added in 20 μl aliquots. Control cultures were treated with DMSO alone. […] After 72 hours of incubation, Calcein AM solution (Molecular Probes) was added to a final concentration of 1 μg/ml and the cells were incubated for another hour.
(§2) Cytoxicity of compounds was tested on panel of cell lines of different histogenetic and species origin.

Test [2] deals with MCF-7 (breast adenocarcinoma). The experiment in a line: In vitro cytotoxicity, Calcein AM assay, MCF7. It is filed as cell-based. To be noted: Homo sapiens, MCF7, 72 h, 3-day Calcein-AM assay.
Excerpt: as §1, §2

The test system of test [3] is HL-60 (promyelocytic, leukemia). The experiment in a line: In vitro cytotoxicity, Calcein AM assay, HL60. It is filed as cell-based. To be noted: Homo sapiens, HL-60, 72 h, 3-day Calcein-AM assay.
Excerpt: as §1, §2

Test [4] has as its system K562 (chronic myeloid leukemia). As to the kind of experiment: In vitro cytotoxicity, Calcein AM assay, K-562. The format is cell-based. Particulars: Homo sapiens, K562, 72 h, 3-day Calcein-AM assay.
Excerpt: as §1, §2

Test [5] concerns G361 (malignant melanoma). The experiment in a line: In vitro cytotoxicity, Calcein AM assay, G-361. It is filed as cell-based. Particulars: Homo sapiens, 72 h, 3-day Calcein-AM assay.
Excerpt: (§3) Because toxic compounds adversely affect cell metabolic processes, many standard cytotoxicity assays are based on measuring the rate of metabolism of various artificial substrates. The resulting product is then quantified, for example, by spectrometry. Assays can be easily modified for use in 96-well plates, A microtiter assay based on the quantification of Calcein AM metabolism was used to evaluate the cytotoxicity of cytokinins, for example meta-topolin, ortho-topolin, kinetin, BAP or its mesylate salts, but also a number of other cytokinin mesylate derivatives according to the invention. The test is widely used in drug screening programs and in chemosensitivity testing. In living cells, Calcein AM is enzymatically hydrolyzed and the accumulation of the resulting calcein is manifested by green fluorescence. The following cell lines—RPMI 8226 (multiple myeloma), CEM (T-lymphoblastic leukemia), K562 (chronic myeloid leukemia), HL-60 (promyelocytic, leukemia), MCF-7 (breast adenocarcinoma), HeLa (cervical cancer), G361 (malignant melanoma), HOS (human osteosarcoma) and BJ (human foreskin fibroblasts)—were obtained from the American Type Culture Collection (Manassas, VA, USA). These cells were maintained in standard DMEM or RPMI medium (Sigma, MO, USA) supplemented with heat-inactivated fetal bovine serum (10%) with 2 mM L-glutamine and penicillin-streptomycin (1%) under standard cell culture conditions (37° C., 5% CO2 in a humid environment) and subcultured two or three times a week using a standard trypsinization procedure. Approximately 10,000 cells in 80 μl of medium were seeded in a 96-well microtiter plate. After 12 hours of incubation, the compounds to be tested were added in 20 μl aliquots. Control cultures were treated with DMSO alone. […] Serial, 3-fold dilutions (six in total, peak concentrations in 166 μM incubations) of each compound were tested. After 72 hours of incubation, Calcein AM solution (Molecular Probes) was added to a final concentration of 1 μg/ml and the cells were incubated for another hour. Free calcein fluorescence was then quantified using a Fluoroscan Ascent fluorometer (Microsystems), and the percentage of surviving cells in each well was calculated by dividing the OD obtained from each cell by the exposed cells by the mean OD obtained from control wells×100%, Finally, IC50 values (concentration causing a 50% decrease in cellular esterase activity) were calculated for each compound generated from dose-response curves (Krys̆tof et al., 2005, Bioorg. Med. Chem. Lett. 12, 3283-3286). The IC50 values reported here are averages obtained from at least three independent experiments, where the individual replication values fell within 20% of the average. Growth inhibition was calculated using the following equation: IC50=(mean FDwell exposed to drug−mean FDblank)/(mean FDcontrol well−mean FDblank)×100%.
as §2

The test system of test [6] is NIH-3T3. As to the kind of experiment: In vitro cytotoxicity, Calcein AM assay, NIH-3T3. It is filed as cell-based. To be noted: Mus musculus, NIH3T3, 72 h, 3-day Calcein-AM assay.
Excerpt: as §3, with “Growth inhibition was calculated using the following equation: IC50=(mean FDwell exposed to drug−mean FDblank)/(mean FDcontrol well−mean FDblank)×100%.” left out

The test system of test [7] is HOS (human osteosarcoma). The experiment in a line: In vitro cytotoxicity, Calcein AM assay, HOS. It is filed as cell-based. To be noted: Homo sapiens, 72 h, 3-day Calcein-AM assay.
Excerpt: as §1, §2

Test [8] concerns cytokinin-dependent tobacco callus. As to the kind of experiment: Tobacco callus biotest (stimulation of plant cell division). It is filed as cell-based, Nicotiana tabacum L. cv. Wisconsin 38. Particulars: callus growth at concentration with highest activity; 10^−5 M BAP = 100%. On the procedure:
Stimulation effect of the cytokinin mesylates was tested in tobacco callus biotest using cytokinin dependent tobacco callus. Cytokinin-dependent tobacco callus Nicotiana tabacum L. cv. […] Subcultivation was carried out every three weeks. Fourteen days before the bioassay, the callus tissue was transferred to the media without BAP. Biological activity was determined from the increase in fresh callus weight after four weeks of cultivation. Five replicates were prepared for each cytokinin concentration and the entire test was repeated twice. […] Relative activity of the compound at this concentration was calculated (Tab. 15). The activity obtained for 10^−5 M 6-benzylaminopurine (BAP) was postulated as 100%. The cytokinin bases to be tested were dissolved in dimethylsulfoxide (DMSO) and the solution brought up to 10^−3 M with distilled water. The mesylate salts were dissolved directly in distilled water.

In the case of `Clc1ccccc1CNc1ncnc2nc[nH]c12` [2ClBAP, 6-(2-chlorobenzylamino)purine], the IC50 in test [1] is 58.4 µM; in test [2], 164 µM; in test [3], 110 µM; in test [4], 101 µM; in test [5], 56.6 µM; in test [6], more than 167 µM. The IC50 in test [7] is 84.9 µM. Besides, the “activity (%) [10^−5 mol · l^−1 BAP = 100%]” value in test [8] was found to be 93%.

Regarding `Fc1ccccc1CNc1ncnc2nc[nH]c12` [2FBAP, 6-(2-fluorobenzylamino)purine], the IC50 is 98 µM in test [1]; more than 167 µM in test [2]; 136 µM in test [4]; 106 µM in test [5]; more than 167 µM in test [7].

As to `Clc1cccc(CNc2ncnc3nc[nH]c23)c1` [3ClBAP, 6-(3-chlorobenzylamino)purine], the concentration for half-maximal inhibition (IC50) in test [1] is more than 167 µM; in test [2], more than 167 µM; in test [3], more than 167 µM; in test [5] it was 149 µM; in test [7] it was more than 167 µM. Besides, the “activity (%) [10^−5 mol · l^−1 BAP = 100%]” value in test [8] was 94%.

As for `Fc1cccc(CNc2ncnc3nc[nH]c23)c1` [3FBAP, 6-(3-fluorobenzylamino)purine], the IC50 is more than 167 µM in test [1]; 163 µM in test [2]; more than 167 µM in test [3]; 105 µM in test [4]; more than 167 µM in test [5]; more than 167 µM in test [7].

Consider `Fc1ccc(CNc2ncnc3nc[nH]c23)cc1` [4FBAP, 6-(4-fluorobenzylamino)purine], for which the IC50 in test [1] is 66.4 µM; in test [2], more than 167 µM; in test [3], 59.2 µM; in test [4], more than 167 µM; in test [5], more than 167 µM; in test [7] it was more than 167 µM.

In the case of `COc1ccc(CNc2ncnc3nc[nH]c23)cc1` [4MeOBAP, 6-(4-methoxybenzylamino)purine], the IC50 in test [1] was more than 167 µM; in test [2], more than 167 µM; in test [3], more than 167 µM; in test [4], more than 167 µM; in test [5] it was not below 167 µM; in test [6] it was more than 167 µM. Besides, the IC50 in test [7] was more than 167 µM.
